Molecules are shown by their SMILES. Read-outs that look alike come from different tables or passages of the source.

The target of this assay is T1, c-MET (HGFR) (Homo sapiens, UniProt P08581).
T1 construct: purchased Upstate 14-526
Put plainly: HGFR Continuous-Coupled Spectrophotometric Assay. The assay is classed as biochemical. The settings on record: Met-2 substrate peptide, 50 nM HGFR, 37° C. The text has this: The following in vitro assay may be used to determine the level of activity and effect of the different compounds of the present invention on one or more of the PKs. Similar assays can be designed along the same lines for any PK using techniques well known in the art.
The general procedure is as follows: compounds and kinase assay reagents are introduced into test wells. The assay is initiated by addition of the kinase enzyme. Enzyme inhibitors reduce the measured activity of the enzyme.
In the continuous-coupled spectrophotometric assay the time-dependent production of ADP by the kinase is determined by analysis of the rate of consumption of NADH by measurement of the decrease in absorbance at 340 nm. As the PK produces ADP it is re-converted to ATP by reaction with phosphoenol pyruvate and pyruvate kinase. Pyruvate is also produced in this reaction. Pyruvate is subsequently converted to lactate by reaction with lactate dehydrogenase, which simultaneously converts NADH to NAD.
HGFR Continuous-Coupled Spectrophotometric Assay
This assay analyzes the tyrosine kinase activity of HGFR on the Met-2 substrate peptide, a peptide derived from the activation loop of the HGFR.
• 1. […] Dissolve up in 200 mM HEPES, pH 7.5 at 10 mM stock. • 3. 1 M PEP (phospho-enol-pyruvate) in 200 mM HEPES, pH 7.5 • 4. 100 mM NADH (B-Nicotinamide Adenine Dinucleotide, Reduced Form) in 200 mM HEPES, pH 7.5 • 5. 4 M MgCl2 (Magnesium Chloride) in ddH2O • 6. 1 M DTT (Dithiothreitol) in 200 mM HEPES, pH 7.5 • 7. 15 Units/mL LDH (Lactic Dehydrogenase) • 8. 15 Units/mL PK (Pyruvate Kinase) • 9. 5M NaCl dissolved in ddH2O • 10. Tween-20 (Protein Grade) 10% Solution • 11. 1 M HEPES buffer: (N-[2-Hydroxethyl]piperazine-N-[2-ethanesulfonic acid]) Sodium Salt. Dissolve in ddH2O, adjust pH to 7.5, bring volume to 1 L. Filter at 0.1 μm. • 12. […] 100% DMSO (SIGMA) • 14. […] Beckman DU-650 w/micro cell holders • 18. Beckman 4-position micro cell cuvette Procedure:
Prep Dilution Buffer (DB) for Enzyme (For 30 mL prep) • 1. DB final concentration is 2 mM DTT, 25 mM NaCl2, 5 mM MgCl2, 0.01% Tween-20, and 50 mM HEPES buffer, pH 7.5. • 2. Make up 50 mM HEPES by adding 1.5 mL 1 M HEPES into 28.1 mL of ddH2O. Add rest of the reagents. Into 50 mL conical vial, add 60 μL of 1M DTT, 150 μL 5M NaCl2, 150 μL 1M MgCl2, and 30 μL of 10% Tween-20 to give total volume of 30 mL. • 3. […] Aliquot out DB at 1 mL/tube and label tubes as “DB HGFR” • 5. Note: This can be prepared and stored ahead of time. • 6. Freeze un-used aliquots in microcentrifuge tubes at −20° C. freezer. […] For compound dilution plate, add 4 μL of 10 mM stock into column 1 of plate, and bring volume to 100 μL with 100% DMSO. • 2. Set up the Precision 2000 dilution method. A final concentration of 200 μM compound in 50% DMSO, 100 mM HEPES (1:2 serial dilution). Prep Coupled Enzymatic Buffer:
1. Final concentration in assay:
• 2. For a 10 mL reaction buffer add 10 μL of 1M PEP, 33 μL of 100 mM NADH, 50 μL of 4M MgCl2, 20 μL of 1M DTT, 6 μL of 500 mM ATP, and 500 μL of 10 mM Met-2 peptide into 100 mM HEPES buffer pH 7.5 and vortex/mix. • 3. Add coupling enzymes, LDH and PK, into reaction mix. Mix by gentle inversion. Running Samples
1. Spectrophotometer settings:
• 2. Add 85 μL of CE reaction mix into each well of assay plate. • 3. Add 5 μL of diluted compound into a well of the assay plate. • 4. Add 5 μL of 50% DMSO for negative control into last column of assay plate. • 5. Mix with multi-channel pipettor or orbital shaker. • 6. Pre-incubate for 10 minutes at 37° C. • 7. Add 10 μL of 500 nM HGFR to each well of assay plate; the final HGFR concentration is 50 nM in a total final volume of 100 μL. • 8. Measure activity for 10 minutes at λ=340 nm and 37° C.

T1 sequence (P08581 974-1390 limits assumed): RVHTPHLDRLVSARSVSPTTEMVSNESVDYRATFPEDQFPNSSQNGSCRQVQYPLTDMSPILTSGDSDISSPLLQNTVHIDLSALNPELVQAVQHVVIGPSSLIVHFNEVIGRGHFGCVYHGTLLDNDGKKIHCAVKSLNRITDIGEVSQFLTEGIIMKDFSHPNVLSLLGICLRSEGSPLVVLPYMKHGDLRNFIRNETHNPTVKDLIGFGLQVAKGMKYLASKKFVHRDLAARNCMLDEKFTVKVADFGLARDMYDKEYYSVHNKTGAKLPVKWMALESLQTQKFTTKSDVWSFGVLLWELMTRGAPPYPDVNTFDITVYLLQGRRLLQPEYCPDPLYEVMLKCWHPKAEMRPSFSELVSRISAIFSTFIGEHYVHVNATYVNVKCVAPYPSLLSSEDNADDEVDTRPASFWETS

In the case of `C[C@@H](Oc1nc(-c2cnn(C3CCNCC3)c2)cnc1N)c1c(Cl)ccc(F)c1Cl` [Example 66, 3-[(R)-1-(2,6-Dichloro-3-fluoro-phenyl)-ethoxy]-5-(1-piperidin-4-yl-1H-pyrazol-4-yl)-pyrazin-2-ylamine], the Ki (read-out: c-Met Ki) was found to be 10 nM.

As for `CC(Oc1cc(-c2cnn(CC(C)(C)O)c2)cnc1N)c1c(Cl)ccc(F)c1Cl` (centres unmarked) [Example 130, 1-(4-{6-Amino-5-[1-(2,6-dichloro-3-fluoro-phenyl)-ethoxy]-pyridin-3-yl}-pyrazol-1-yl)-2-methyl-propan-2-ol], the inhibition constant (Ki) (read-out: Met Ki) was determined as 45 nM.

In the case of `CC(Oc1cc(-c2cnn(CC3CN(C(=O)OC(C)(C)C)C3)c2)cnc1N)c1c(Cl)ccc(F)c1Cl` (centres unmarked) [Example 1, tert-butyl 3-[(4-{6-amino-5-[1-(2,6-dichloro-3-fluorophenyl)ethoxy]pyridin-3-yl}-1H-pyrazol-1-yl)methyl]azetidine-1-carboxylate], for the setting “read-out: c-Met Ki”, the Ki was found to be 66 nM.

Consider `CC(Oc1cc(-c2cnn(C3CCN(C(=O)CN4CCOCC4)CC3)c2)cnc1N)c1c(Cl)ccc(F)c1Cl` (centres unmarked) [Example 123, 1-[4-(4-{6-Amino-5-[1-(2,6-dichloro-3-fluoro-phenyl)-ethoxy]-pyridin-3-yl}-pyrazol-1-yl)-piperidin-1-yl]-2-morpholin-4-yl-ethanone], for which the Ki (read-out: Met Ki) is 13 nM.

`CC(Oc1cc(-c2cnn(C3CCNCC3)c2)cnc1N)c1cc(F)ccc1C#N` (centres unmarked) [Example 135, 2-{1-[2-Amino-5-(1-piperidin-4-yl-1H-pyrazol-4-yl)-pyridin-3-yloxy]ethyl}-4-fluoro-benzonitrile]: the Ki (read-out: Met Ki) stood at 849 nM.

Regarding `CNCCn1cc(-c2cnc(N)c(OC(C)c3c(Cl)ccc(F)c3Cl)c2)cn1` (centres unmarked) [Example 73, 3-[1-(2,6-Dichloro-3-fluoro-phenyl)-ethoxy]-5-[1-(2-methylamino-ethyl)-1H-pyrazol-4-yl]-pyridin-2-ylamine], for the setting “read-out: c-Met Ki”, the Ki turned out to be 55 nM.

With `CC(Oc1cc(-n2ncc3ccccc32)cnc1N)c1c(Cl)ccc(F)c1Cl` (centres unmarked) [Example 78, 3-[1-(2,6-Dichloro-3-fluoro-phenyl)-ethoxy]-5-indazol-1-yl-pyridin-2-ylamine], for the setting “read-out: c-Met Ki”, the Ki was determined as 1560 nM.

As to `CC(Oc1cc(-c2cnn(C3CCN(CC#N)CC3)c2)cnc1N)c1c(Cl)ccc(F)c1Cl` (centres unmarked) [Example 42, [4-(4-{6-Amino-5-[1-(2,6-dichloro-3-fluoro-phenyl)-ethoxy]-pyridin-3-yl}-pyrazol-1-yl)-piperidin-1-yl]-acetonitrile], the Ki (read-out: c-Met Ki) was found to be 20 nM.

As to `CC(Oc1cc(-c2cnn(Cc3nn[nH]n3)c2)cnc1N)c1c(Cl)ccc(F)c1Cl` (centres unmarked) [Example 100, 3-[1-(2,6-dichloro-3-fluorophenyl)ethoxy]-5-[1-(2H-tetrazol-5-ylmethyl)-1H-pyrazol-4-yl]pyridin-2-amine], the Ki (read-out: c-Met Ki) stood at 40 nM.

Turning to `Cc1ccc(Cl)c(C(C)Oc2cc(Br)cnc2N)c1Cl` (centres unmarked) [Example 142, 5-Bromo-3-[1-(2,6-dichloro-3-methyl-phenyl)ethoxy]-pyridin-2-ylamine], where the note is “read-out: Met Ki”, the Ki was found to be 2510 nM.

On to `CC(=O)N1CC(n2cc(-c3cnc(N)c(OC(C)c4c(Cl)ccc(F)c4Cl)c3)cn2)C1` (centres unmarked) [Example 110, 5-[1-(1-acetylazetidin-3-yl)-1H-pyrazol-4-yl]-3-[1-(2,6-dichloro-3-fluorophenyl)ethoxy]pyridin-2-amine], for which, under “read-out: c-Met Ki”, the Ki was found to be 32 nM.

For the compound `CC(=O)N1CCC(n2cc(-c3cnc(N)c(OC(C)c4c(Cl)ccc(F)c4Cl)c3)cn2)CC1` (centres unmarked) [Example 41, 1-[4-(4-{6-Amino-5-[1-(2,6-dichloro-3-fluoro-phenyl)-ethoxy]-pyridin-3-yl}-pyrazol 1-yl)-piperidin-1-yl]-ethanone], for the setting “read-out: c-Met Ki”, the Ki came to 10 nM.

For `Cc1nn(C(C)(C)C(=O)NCCCN(C)C)cc1-c1cnc(N)c(OC(C)c2c(Cl)ccc(F)c2Cl)c1` (centres unmarked) [Example 36, 2-(4-{6-Amino-5-[1-(2,6-dichloro-3-fluoro-phenyl)-ethoxy]-pyridin-3-yl}-3-methyl-pyrazol-1-yl)-N-(3-dimethylamino-propyl)-isobutyramide], the Ki (read-out: c-Met Ki) was determined as 90 nM.

With `CC(Oc1cc(-c2cnn(CC3CN(CC#N)C3)c2)cnc1N)c1c(Cl)ccc(F)c1Cl` (centres unmarked) [Example 111, {3-[(4-{6-amino-5-[1-(2,6-dichloro-3-fluorophenyl)ethoxy]pyridin-3-yl}-1H-pyrazol-1-yl)methyl]azetidin-1-yl}acetonitrile], the Ki (read-out: c-Met Ki) was 37 nM.

On to `CC(Oc1cc(Br)cnc1N)c1c(Cl)c(F)cc(F)c1Cl` (centres unmarked) [Example 145, 5-Bromo-3-[1-(2,6-dichloro-3,5-difluoro-phenyl)-ethoxy]-pyridin-2-ylamine], for which the Ki (read-out: Met Ki) amounted to 30 nM.

As for `CC(Oc1cc(-c2cnn(CC3CCN(C)CC3)c2)cnc1N)c1c(Cl)ccc(F)c1Cl` (centres unmarked) [Example 89, 3-[1-(2,6-Dichloro-3-fluoro-phenyl)-ethoxy]-5-[1-(1-methyl-piperidin-4-ylmethyl)-1H-pyrazol-4-yl]-pyridin-2-ylamine], the Ki (read-out: c-Met Ki) came out at 24 nM.

In the case of `CC(Oc1cc(-c2cnn(C(C)(C)C(=O)N3CC[C@H](O)C3)c2)cnc1N)c1c(Cl)ccc(F)c1Cl` (stereo partly drawn) [Example 56, 2-(4-{6-Amino-5-[1-(2,6-dichloro-3-fluoro-phenyl)-ethoxy]-pyridin-3-yl}-pyrazol-1-yl)-1-((S)-3-hydroxy-pyrrolidin-1-yl)-2-methyl-propan-1-one], the Ki (read-out: c-Met Ki) was found to be 470 nM.

For the compound `CC(Oc1cc(-c2cnn(C)c2)cnc1N)c1c(Cl)c(F)cc(OC2CCNCC2)c1Cl` (centres unmarked) [Example 151, 3-{1-[2,6-Dichloro-3-fluoro-5-(piperidin-4-yloxy)-phenyl]-ethoxy]-5-(1-methyl-1H-pyrazol-4-yl)-pyridin-2-ylamine], under “read-out: Met Ki”, the Ki was 25 nM.

On to `C[C@@H](Oc1nc(-c2cn[nH]c2)cnc1N)c1c(Cl)ccc(F)c1Cl` [Example 67, 3-[(R)-1-(2,6-Dichloro-3-fluoro-phenyl)-ethoxy]-5-(1H-pyrazol-4-yl)-pyrazin-2-ylamine], for which the inhibition constant Ki (read-out: c-Met Ki) came out at 65 nM.

Consider `CCS(=O)(=O)N1CCC(n2cc(-c3cnc(N)c(OC(C)c4c(Cl)ccc(F)c4Cl)c3)cn2)CC1` (centres unmarked) [Example 121], for which the Ki (read-out: Met Ki) was found to be 16 nM.

Regarding `CC(Oc1cc(-c2cnn(C3CN(CC4CC4)C3)c2)cnc1N)c1c(Cl)ccc(F)c1Cl` (centres unmarked) [Example 6, 5-{1-[1-(cyclopropylmethyl)azetidin-3-yl]-1H-pyrazol-4-yl}-3-[1-(2,6-dichloro-3-fluorophenyl)ethoxy]pyridin-2-amine], the Ki (read-out: c-Met Ki) came out at 38 nM.

In the case of `CC(Oc1cc(-c2cnn(C(C)(C)COCCN3CCCC3)c2)cnc1N)c1c(Cl)ccc(F)c1Cl` (centres unmarked) [Example 62, 3-[1-(2,6-Dichloro-3-fluoro-phenyl)-ethoxy]-5-{1-[1,1-dimethyl-2-(2-pyrrolidin-1-yl-ethoxy)-ethyl]-1H-pyrazol-4-yl}-pyridin-2-ylamine], the Ki (read-out: c-Met Ki) is 229 nM.

For `CC(C)Oc1ccc(Cl)c(C(C)Oc2cc(-c3cnn(C4CCNCC4)c3)cnc2N)c1Cl` (centres unmarked) [Example 140, 3-[1-(2,6-Dichloro-3-isopropoxy-phenyl)-ethoxy]-5-(1-piperidin-4-yl-1H-pyrazol-4-yl)-pyridin-2-ylamine], under “read-out: Met Ki”, the Ki is 37 nM.

By Ki is commonly meant the equilibrium dissociation constant of an inhibitor or competing ligand from its target.

For the origin of these results see patent publication US20060128724A1, “Pyrazole-substituted aminoheteroaryl compounds as protein kinase inhibitors” (AGOURON PHARMACEUTICALS, INC., priority 2004, published 2006).
